From patent publication US7875625B2, “Cyclohepta[b]pyridine-3-carbonylguanidine derivative and pharmaceutical product containing same” (Toa Eiyo Ltd., priority 2005, dated 2011)

Columns and labels:
Na^+/H^+ exchanger (NHE) = molecular target: T1, Na^+/H^+ exchanger (NHE) (Rattus norvegicus, UniProt P26431); experiment: NHE inhibitory effect test (swelling of rat platelets induced by sodium propionate); format: cell-based; details: rat platelet-rich plasma, sodium propionate buffer pH 6.7; 300 μM Amiloride taken as 100% inhibition; Probit method
T1 construct: from tissue; host or cells: platelet-rich plasma from Wistar rat blood
T1 sequence (P26431 whole entry): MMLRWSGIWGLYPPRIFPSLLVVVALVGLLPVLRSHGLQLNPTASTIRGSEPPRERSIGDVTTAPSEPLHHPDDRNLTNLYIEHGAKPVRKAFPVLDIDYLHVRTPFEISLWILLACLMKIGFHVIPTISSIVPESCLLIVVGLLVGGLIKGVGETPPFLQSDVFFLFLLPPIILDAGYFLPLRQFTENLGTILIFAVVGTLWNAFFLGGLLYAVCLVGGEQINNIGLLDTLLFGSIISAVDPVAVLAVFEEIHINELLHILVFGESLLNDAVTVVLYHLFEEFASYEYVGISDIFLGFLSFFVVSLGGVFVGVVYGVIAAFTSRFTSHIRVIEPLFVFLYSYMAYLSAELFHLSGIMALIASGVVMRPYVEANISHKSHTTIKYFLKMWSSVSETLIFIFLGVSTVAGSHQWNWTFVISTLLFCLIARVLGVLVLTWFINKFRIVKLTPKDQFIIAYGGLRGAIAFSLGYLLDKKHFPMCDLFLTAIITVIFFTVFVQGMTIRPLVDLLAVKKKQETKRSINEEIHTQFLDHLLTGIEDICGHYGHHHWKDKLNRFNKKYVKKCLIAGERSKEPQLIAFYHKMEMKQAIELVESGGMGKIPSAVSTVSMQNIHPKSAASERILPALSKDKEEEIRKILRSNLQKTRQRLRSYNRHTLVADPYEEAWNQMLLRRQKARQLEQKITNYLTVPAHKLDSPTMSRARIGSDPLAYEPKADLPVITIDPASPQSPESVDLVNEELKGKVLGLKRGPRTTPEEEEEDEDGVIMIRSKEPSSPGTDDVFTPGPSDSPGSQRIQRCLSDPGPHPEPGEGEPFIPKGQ
Experimental: The NHE inhibitory activity was measured according to the method by Scholz et al. [British Journal of Pharmacology, Vol. 109, p. 562-568 (1993)], taking the swelling of rat platelets induced by sodium propionate as an index.
Under etherization, blood was collected (8 mL) from the abdominal aorta of a Wistar rat, and 1 mL of a citrate dextrose solution as an anticoagulant was added. The blood sample was immediately centrifuged at 90×g for 10 minutes, and then the collected supernatant was taken as platelet-rich plasma. Subsequently, to 250 μL of a 140 mM sodium propionate buffer solution containing the test compound dissolved in dimethylsulfoxide (pH 6.7, final dimethylsulfoxide concentration 1%), the platelet-rich plasma prepared in the above (number of platelet; 10×10^6/50 μL) was added, and the decrease in the absorbance associated with the swelling of platelets was measured over time with a Hematracer (NKK Corp.).
The rate of decrease in the absorbance at 20 seconds after the addition of the platelet-rich plasma was taken as the NHE activity, and the inhibitory activity of the respective compounds was expressed as a relative activity, while the action obtained upon addition of 300 μM of Amiloride was taken as 100% inhibition.
In addition, the test results were obtained by calculating the concentration at which the inhibitory activity of the test compound becomes 50% (IC50 value), by a Probit method.

[1] = tested on: reperfusion-induced arrhythmia upon myocardial ischemia; experiment: Reperfusion-induced arrhythmia inhibitory action test; format: in vivo, rat; details: male SD rats, 3.62 mmol/L, 1 mL/kg intravenous, within 10 minutes after reperfusion
Experimental: Subsequently, in evaluation of the in vivo NHE inhibitory action, the effect of the test compound on reperfusion-induced arrhythmia upon myocardial ischemia was evaluated according to the method of Aihara et al. [European Journal of Pharmacology, Vol. 404, p. 221-229 (2000)]. Under anesthesia using pentobarbital sodium (60 mg/kg, intraperitoneal administration), cannulae were inserted into trachea, femoral vein and carotid artery of male SD rats ([…]) for artificial ventilation, drug administration and blood pressure measurement, respectively. The blood pressure was measured using a strain pressure amplifier via a pressure transducer, while the heart rate was measured from the blood pressure pulse wave using a cardiotachometer. Furthermore, an electrocardiogram (lead II) was measured from the electrodes attached to each four limbs. Next, under artificial ventilation, left thoracotomy was performed and a snare (5-0 nylon) was loosely placed around a blood vessel which was about 3 mm apart from the origin of the left coronary artery. Thereafter, it was confirmed that arrhythmia was not occurred for 10 minutes, and then the snare was fastened to induce local myocardial ischemia. Furthermore, after 4 minutes of myocardial ischemia, the compound was intravenously administered for 1 minute, and after 5 minutes of myocardial ischemia, the snare was loosened, then the arrhythmia occurred after reperfusion was recorded and analyzed with an arrhythmia analyzer (Softron Co., Ltd.), thereby the anti-arrhythmic action of the compound was evaluated. […] The control group was administered with physiological saline.
With regard to the ventricular fibrillation (Vf) which occurred within 10 minutes after reperfusion (in the cases of halfway death, up to the time point where cardiac arrest was confirmed), arrhythmia analysis was performed according to the Guidelines for Lambeth Convention [Cardiovascular research, Vol. 22, p. 447-455, 1988], and evaluation was made in terms of the frequency of Vf occurrence, cumulative duration time of Vf, and the mortality.
The frequency of Vf occurrence, cumulative duration of Vf, and the mortality for the respective test compounds are presented in Table 2.

[2] = Metabolic stability test in rat (generation of control compound in plasma); format: in vivo; details: male SD rats
Source text: The compound represented by Formula (1) of the present invention has a structure in which the hydroxyl group on the 9-position of a 9-hydroxymethyl-cyclohepta[b]pyridine-3-carbonylguanidine derivative is converted to a specific substituent. However, if the compound is metabolized in vivo to remove the specific substituent from the compound, there may be generated the original 9-hydroxymethyl-cyclohepta[b]pyridine-3-carbonylguanidine derivative, which has toxic effects on the central nervous system. Thus, the inventive compounds as synthesized in Examples were administered in vivo to study whether the control compound, which was the corresponding 9-hydroxymethyl product, was generated.
Male SD rats (7 weeks old) were administered at 1 mg/kg (an amount calculated excluding salts) of the control compound, an equivalent amount of the Inventive Compound 2, 4, 6, 7 or 12, or Reference Compound 20, through the tail vein. After administration, about 0.2 mL of blood samples were collected after 5, 15, 30, 60 and 120 minutes, and the blood samples were centrifuged at 4° C. at a speed of rotation of 15000 for 15 minutes, thus to separate the supernatant plasma. The concentration of the control compound in the plasma was measured by LC/MS/MS. The measurement results were shown as +++ when the detected plasma concentration of the control compound is 200 ng/mL or greater; ++ for more than 100 ng/mL and less than 200 ng/mL; + for more than 20 ng/mL and less than 100 ng/mL; and − for less than 20 ng/mL or no detection.

male mice = experiment: Toxicity test with 2-days repeated intraperitoneal administration in mouse; format: in vivo; details: equivalent of 300 mg/kg control compound intraperitoneally once a day for 2 days
Experimental: For three male mice in each group, 300 mg/kg of the Control Compound (an amount calculated excluding salts), or an equivalent amount of the Inventive Compound 2, 4, 6, 7 or 12 were intraperitoneally administered once a day for 2 days, and a histopathological tests were performed. The Control Compound, and the Inventive Compounds 2, 4 and 6 were suspended in a 0.5% tragacanth gum solution, and the Inventive Compound 7 was suspended in a 10 DMSO-containing 0.5% tragacanth gum solution, while the Inventive Compound 12 was suspended in olive oil. For the histopathological test, in order to make a more thorough examination of central nervous toxicity, the brain was examined after whole body was subjected to perfusion fixation with a 4% formaldehyde in neutral phosphate buffer as a fixing solution using a liquid transporting pump under pentobarbital sodium anesthesia.

Beagle dogs = experiment: Toxicity test after 4-days repeated intravenous administration in beagle dogs; format: in vivo, dog; details: equivalent of 30 mg/kg control compound intravenously once a day for 4 days
Experimental: With one male and one female dogs in each group, 30 mg/kg of the Control Compound dissolved in physiological saline (an amount calculated excluding salts), or an equivalent amount of the Inventive Compound 2, 4, 6 or 8 was repeatedly administered intravenously once a day for 4 days, and general symptom observation and pharmacological histopathologic examination were performed.

[3] = Comparative test for transferability to the brain in rat; format: in vivo; details: male SD rats, 50 mg/kg via tail vein
Experimental: To male SD rats (6 weeks old), the Control Compound or the Inventive Compound 2 was administered through the tail vein in an amount of 50 mg/kg. After administration, whole blood samples were collected over time from the abdominal aorta under etherization, and the brain tissues were extracted immediately. The brain tissues were lightly washed off to remove the blood attached around with physiological saline, and subsequently the tissues were frozen in liquid nitrogen and preserved at −30° C. until analyzed. The blood was centrifuged at 4° C. at a rotation speed of 15000 for 15 minutes to separate the supernatant plasma, and was preserved at −30° C. until analyzed. The brain tissues were thawed by standing at ambient temperature, and then the wet weight was measured. Distilled water was added in an amount five times of the wet weight, and a suspension was prepared using a Polytron homogenizer. The measurement of the test compound concentration in the plasma and the brain tissues was performed by LC/MS/MS. The transferability of the drug to the brain was calculated by dividing the drug concentration in the brain tissues by the plasma concentration obtained at the same time.

Cc1nc2c(cc1C(=O)NC(=N)N)CCCCC2COS(=O)(=O)[O-].[Na+] (stereo not drawn) [Inventive Compound 2, 3-Guanidinocarbonyl-2-methyl-6,7,8,9-tetrahydro-5H-cyclohepta[b]pyridin-9-ylmethyl sulfate sodium salt]
IC50 (Na^+/H^+ exchanger (NHE)): 143 nM
Cumulative duration of Vf [1]: 13.7 s
Frequency of Vf occurrence [1]: 40%
Mortality [1]: 20%
Plasma concentration of the control compound, after 5 min ([2]; equivalent of 1 mg/kg control compound via tail vein, LC/MS/MS, 5 min): − (− for less than 20 ng/mL or no detection)
Plasma concentration of the control compound, after 15 min ([2]; equivalent of 1 mg/kg control compound via tail vein, LC/MS/MS, 15 min): − (− for less than 20 ng/mL or no detection)
Plasma concentration of the control compound, after 30 min ([2]; equivalent of 1 mg/kg control compound via tail vein, LC/MS/MS, 30 min): − (− for less than 20 ng/mL or no detection)
Plasma concentration of the control compound, after 60 min ([2]; equivalent of 1 mg/kg control compound via tail vein, LC/MS/MS, 60 min): − (− for less than 20 ng/mL or no detection)
Plasma concentration of the control compound, after 120 min ([2]; equivalent of 1 mg/kg control compound via tail vein, LC/MS/MS, 120 min): − (− for less than 20 ng/mL or no detection)
Decomposition into the Control Compound in vivo (in words) ([2]; tail vein, plasma 5-120 min): not detected at any time point
Histopathological finding in the brain (male mice): any histologic finding which could be caused by drug administration was not recognized
General condition (symptom observation) (Beagle dogs): only vomiting was recognized
Pathologic examination of the brain (Beagle dogs): any histologic finding which could be caused by drug administration was not recognized
Transferability to the brain tissues (in words) ([3]; compared with the Control Compound): decreased transferability to the brain tissues
Kp at 15 min ([3]; rat, brain/plasma, intravenous, 15 min, read-out: Concentration Intracerebral/Plasma, after 15 min): 0.29
